Read-outs that look alike come from different tables or passages of the source. Non-standard residues stand in square brackets, D forms with d. Residues, ends and D or L forms follow the SMILES beside them. Groups on a side chain read outwards from the residue. ξ: configuration not given here. *: point of attachment. X3 = C[N+](C)(Cc1cn([C@@H](CCCNC(=N)N)C(=O)*)nn1)C[B-](F)(F)F; X2 = C[N+](C)(Cc1cn([C@@H](CCCCN)C(=O)*)nn1)C[B-](F)(F)F; DOTA = O=C(O)CN1CCN(CC(=O)O)CCN(CC(=O)*)CCN(CC(=O)O)CC1; X5 = CC(C)[C@H](C(=O)*)n1cc(C[N+](C)(C)C[B-](F)(F)F)nn1; X4 = C[N+](C)(Cc1cn(-c2ccc(C(=O)*)cc2)nn1)C[B-](F)(F)F; dTyr(3-I) = N[C@H](Cc1ccc(O)c(I)c1)C(=O)O; 2Nal = N[C@@H](Cc1ccc2ccccc2c1)C(=O)O; X1 = OCC1O[C@H](*)C(O)C(O)[C@H]1O; pS = N[C@@H](COP(=O)(O)O)C(=O)O; dNMeOrn = CN[C@H](CCCN)C(=O)O; 4Amb = NCc1ccc(C(=O)O)cc1; Mercaptoacetyl = O=C(CS)*; ξNMeOrn = CNC(CCCN)C(=O)O; 4Abz = Nc1ccc(C(=O)O)cc1; X6 = CC(=O)c1ccc(N*)cc1; Dap = NC[C@H](N)C(=O)O
Experiments:
human CXCR4 = molecular target: T1, human CXCR4 (Homo sapiens, UniProt P61073); assay: Competitive binding assay to human CXCR4, Jurkat cells, [125I]FC131 radioligand
T1 construct: using CXCR4 positive Jurkat human T-cell leukemia cells; endogenous in cells; host or cells: Jurkat human T-cell leukemia cells

[1] = Lipophilicity, shake flask n-octanol/PBS; format: physicochemical; conditions: Table 1d
Experimental: To a solution of app. 0.5 MBq of radiolabeled peptide in 500 μL of PBS (pH 7.4), 500 μL of octanol were added (n=6). Vials were vortexed vigorously for 3 min. To achieve quantitative phase separation, the vials were centrifuged at 14,600×g for 6 min in a Biofuge 15 (Heraeus Sepatech, Osterode, Germany). The activity concentrations in 100 μL-samples of both the aqueous and the organic phase were measured in a γ-counter. Both the partition coefficient Pow, which is defined as the molar concentration ratio of a single species A between octanol and an aqueous phase at equilibrium, and log Pow, which is an important parameter used to characterize lipophilicity of a compound, were calculated.
Internalization and cell efflux studies of the respective ligands were performed using a previously published protocol (Poschenrieder et al., First 18F-Labeled Pentixafor-Based Imaging Agent for PET Imaging of CXCR4 Expression In Vivo. 2016). The distribution coefficients of the respective ^68Ga- and […] peptides in octanol and PBS buffer were determined applying the shake flask method as described previously (Weineisen et al., Synthesis and preclinical evaluation of DOTAGA-conjugated PSMA ligands for functional imaging and endoradiotherapy of prostate cancer. EJNMMI Research. 2014; 1:1-15).
Lipophilicity was measured using the shake flask method. The logarithm of the partition coefficient P, where P is the ratio of activity distribution of the respective ^68Ga/^177Lu-labeled peptide in n-octanol and PBS are listed in Table 2.

murine CXCR4 = molecular target: T2, murine CXCR4 (Mus musculus, UniProt P70658); assay: Competitive binding assay to murine CXCR4, Eμ-Myc1080 cells, [125I]CPCR4.3 radioligand
T2 construct: The murine CXCR4 expressing cell line Ep-Myc1080; endogenous in cells; host or cells: Eμ-Myc1080 mouse B-cell lymphoma cells
Experimental: Competition studies addressing the human CXCR4 were performed using CXCR4 positive Jurkat human T-cell leukemia cells and ^125I-FC131 (^125I-2), addressing the murine CXCR4, Ep-Myc1080 mouse B-cell lymphoma cells and ^125I-CPCR4.3 (Demmer et al. A Conformationally Frozen Peptoid Boosts CXCR4 Affinity and Anti-HIV Activity. Angewandte Chemie International Edition. 2012; 51:8110-8113) as the radioligand were utilized as described previously (Poschenrieder et al., The influence of different metal-chelate conjugates of pentixafor on the CXCR4 affinity. EJNMMI research. 2016; 6:1-8).

[2] = Table 1b, 18F-labeling precursors, Jurkat cells, [^125I]FC-131, read-out: IC50 [nM] to hCXCR4
[3] = Table 1d, orn side chain modifications, read-out: IC50 [nM] to hCXCR4
[4] = Table 1b, ^natLu metal complexes, Jurkat cells, [^125I]FC-131, read-out: IC50 [nM] to hCXCR4 [^natLu]
[5] = ^natLu complexes, Jurkat cells, [^125I]FC131 0.1 nM, RT 2 h, mean ± SD (n = 3), read-out: IC50 [nM] for ^natLu-complexes and human CXCR4
[6] = Table 1b, ^natGa metal complexes, Jurkat cells, [^125I]FC-131, read-out: IC50 [nM] to hCXCR4 [^natGa]
[7] = Table 1b, ^natY metal complexes, Jurkat cells, [^125I]FC-131, read-out: IC50 [nM] to hCXCR4 [^natY]
[8] = ^natGa complexes, Jurkat cells, [^125I]FC131 0.1 nM, RT 2 h, mean ± SD (n = 3), read-out: IC50 [nM] for ^natGa-complexes and human CXCR4

T1 sequence (P61073 whole entry): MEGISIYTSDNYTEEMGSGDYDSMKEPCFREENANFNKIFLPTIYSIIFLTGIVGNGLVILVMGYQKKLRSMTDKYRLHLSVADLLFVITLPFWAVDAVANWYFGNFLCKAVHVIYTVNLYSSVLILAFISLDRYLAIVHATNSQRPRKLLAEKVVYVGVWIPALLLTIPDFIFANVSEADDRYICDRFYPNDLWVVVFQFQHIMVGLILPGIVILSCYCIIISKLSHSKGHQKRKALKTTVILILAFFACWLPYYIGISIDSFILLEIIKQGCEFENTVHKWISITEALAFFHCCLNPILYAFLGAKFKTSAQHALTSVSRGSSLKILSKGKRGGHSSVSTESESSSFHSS
T2 sequence (P70658 whole entry): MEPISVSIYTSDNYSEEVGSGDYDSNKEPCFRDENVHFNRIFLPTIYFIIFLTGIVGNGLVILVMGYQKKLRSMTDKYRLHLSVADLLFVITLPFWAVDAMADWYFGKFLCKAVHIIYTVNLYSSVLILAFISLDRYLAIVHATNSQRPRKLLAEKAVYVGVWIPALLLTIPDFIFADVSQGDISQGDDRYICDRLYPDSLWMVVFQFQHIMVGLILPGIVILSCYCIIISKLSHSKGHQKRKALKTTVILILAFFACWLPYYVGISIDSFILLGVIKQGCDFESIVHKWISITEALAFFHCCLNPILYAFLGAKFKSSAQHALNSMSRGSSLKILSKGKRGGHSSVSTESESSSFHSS

Q: Which IC50 (human CXCR4; [2]) does the source give for `CN1C(=O)[C@@H](Cc2ccc(O)c(I)c2)NC(=O)CNC(=O)[C@H](Cc2ccc3ccccc3c2)NC(=O)[C@H](CCCNC(=N)N)NC(=O)[C@H]1CCCNC(=O)c1ccc(-n2cc(C[N+](C)(C)C[B-](F)(F)F)nn2)cc1` [F1, cyclo[i-yorn′(AMBF3(methyl(1H-1,2,3-triazol-4-yl)4-amino)benzoyl-)RNaIG]] (cyclo([2Nal]G[dTyr(3-I)][dNMeOrn](X4)R)) here?
A: 134 ± 47 nM

Q: Which IC50 (human CXCR4; [2]) does the source give for `CC(C)[C@H](C(=O)NCC(=O)Nc1ccc(C(=O)NCCC[C@@H]2C(=O)N[C@@H](CCCNC(=N)N)C(=O)N[C@@H](Cc3ccc4ccccc4c3)C(=O)NCC(=O)N[C@H](Cc3ccc(O)c(I)c3)C(=O)N2C)cc1)n1cc(C[N+](C)(C)C[B-](F)(F)F)nn1` [F2, cyclo[i-yorn′(AMBF3(methyl(1H-1,2,3-triazol-4-yl)-vG-4-amino)benzoyl-)RNaIG]] (cyclo([2Nal]G[dTyr(3-I)][dNMeOrn]([4Abz-Gly-X5])R)) here?
A: 65.2 ± 10 nM

Q: For `CN1C(=O)[C@@H](Cc2ccc(O)cc2)NC(=O)CNC(=O)[C@H](Cc2ccc3ccccc3c2)NC(=O)[C@H](CCCNC(=N)N)NC(=O)[C@H]1CCCNC(=O)c1ccc(NC(=O)CNC(=O)[C@H](CCCNC(=N)N)n2cc(C[N+](C)(C)C[B-](F)(F)F)nn2)cc1` [F3b, cyclo[-yorn′(AMBF3(methyl(1H-1,2,3-triazol-4-yl)-rG-4-amino)benzoyl-)RNaIG]] (cyclo([2Nal]G[dY][dNMeOrn]([4Abz-Gly-X3])R)), which IC50 (human CXCR4; [2]) is on record?
A: 2.4 ± 0.8 nM

Q: For `CN1C(=O)[C@@H](Cc2ccc(O)c(I)c2)NC(=O)CNC(=O)[C@H](Cc2ccc3ccccc3c2)NC(=O)[C@H](CCCNC(=N)N)NC(=O)[C@H]1CCCNC(=O)c1ccc(NC(=O)CNC(=O)[C@H](CCCCN)n2cc(C[N+](C)(C)C[B-](F)(F)F)nn2)cc1` [F4, cyclo[i-yorn′(AMBF3(methyl(1H-1,2,3-triazol-4-yl)-kG-4-amino)benzoyl-)RNaIG]] (cyclo([2Nal]G[dTyr(3-I)][dNMeOrn]([4Abz-Gly-X2])R)), which IC50 (human CXCR4; [2]) is on record?
A: 3.8 ± 0.9 nM

Q: Which IC50 (human CXCR4; [3]) does the source give for `CC(=O)c1ccc(NC(=O)[C@@H](C)NC(=O)[C@@H](CCCNC(=N)N)NC(=O)[C@@H](CNC(=O)CO/N=C\c2ccc(F)cc2)NC(=O)CCS[C@H]2OC(CO)[C@@H](O[C@@H]3OC(CO)[C@@H](O)C(O)C3O)C(O)C2O)cc1` (some centres unmarked) [F5] here?
A: 4.6 ± 0.7 nM

Q: Which IC50 (human CXCR4; [4]) does the source give for `CN1C(=O)[C@H](Cc2ccc(O)c(I)c2)NC(=O)CNC(=O)[C@@H](Cc2ccc3ccccc3c2)NC(=O)[C@@H](CCCNC(=N)N)NC(=O)[C@@H]1CCCNC(=O)c1ccc(NC(=O)[C@@H](CC(=O)O)NC(=O)CN2CCN(CC(=O)O)CCN(CC(=O)O)CCN(CC(=O)O)CC2)cc1` [P1] here?
A: 106 ± 10 nM

Q: And the IC50 (human CXCR4; [5])?
A: 106 ± 10 nM

Q: Which results are given for `CN1C(=O)[C@@H](Cc2ccc(O)c(I)c2)NC(=O)CNC(=O)[C@H](Cc2ccc3ccccc3c2)NC(=O)[C@H](CCCNC(=N)N)NC(=O)[C@H]1CCCNC(=O)c1ccc(NC(=O)CNC(=O)[C@H](CN)NC(=O)CN2CCN(CC(=O)O)CCN(CC(=O)O)CCN(CC(=O)O)CC2)cc1` [P2] (cyclo([2Nal]G[dTyr(3-I)][dNMeOrn]([4Abz-Gly-Dap-DOTA])R))?
A: IC50 (human CXCR4; [6]): 3.6 ± 0.7 nM; IC50 (human CXCR4; [7]): 4.1 ± 1.3 nM; IC50 (human CXCR4; [8]): 3.6 ± 0.7 nM

Q: With `CN1C(=O)[C@@H](Cc2ccc(O)c(I)c2)NC(=O)CNC(=O)[C@H](Cc2ccc3ccccc3c2)NC(=O)[C@H](CCCNC(=N)N)NC(=O)C1CCCNC(=O)c1ccc(NC(=O)CNC(=O)[C@H](CCCCN)NC(=O)CN2CCN(CC(=O)O)CCN(CC(=O)O)CCN(CC(=O)O)CC2)cc1` (stereo partly drawn) [P3] (cyclo([2Nal]G[dTyr(3-I)][ξNMeOrn]([4Abz-Gly-Lys-DOTA])R)) as the compound, how does the IC50 (human CXCR4; Table 1b, ^natBi metal complexes, Jurkat cells, [^125I]FC-131, read-out: IC50 [nM] to hCXCR4 [^natBi]) read?
A: 38 ± 25 nM

Q: And the IC50 (human CXCR4; [6])?
A: 2.4 ± 0.1 nM

Q: What about the IC50 (human CXCR4; [4]) of the same compound?
A: 3.6 ± 1.1 nM

Q: What about the IC50 (human CXCR4; [7]) of the same compound?
A: 2.4 ± 0.2 nM

Q: And the IC50 (human CXCR4; [8])?
A: 2.4 ± 0.1 nM

Q: What about the IC50 (human CXCR4; [5]) of the same compound?
A: 3.6 ± 1.1 nM

Q: Which IC50 (human CXCR4; [6]) does the source give for `CN1C(=O)[C@@H](Cc2ccc(O)cc2)NC(=O)CNC(=O)[C@H](Cc2ccc3ccccc3c2)NC(=O)[C@H](CCCNC(=N)N)NC(=O)C1CCCNC(=O)c1ccc(NC(=O)CNC(=O)[C@H](CCCCN)NC(=O)CN2CCN(CC(=O)O)CCN(CC(=O)O)CCN(CC(=O)O)CC2)cc1` (stereo partly drawn) [P3b] (cyclo([2Nal]G[dY][ξNMeOrn]([4Abz-Gly-Lys-DOTA])R)) here?
A: 8.9 ± 3.8 nM

Q: What about the IC50 (human CXCR4; [4]) of the same compound?
A: 8 ± 3.1 nM

Q: What about the IC50 (human CXCR4; [7]) of the same compound?
A: 6.3 ± 2.5 nM

Q: And the IC50 (human CXCR4; [8])?
A: 8.9 ± 3.8 nM

Q: And the IC50 (human CXCR4; [5])?
A: 8 ± 3.1 nM

Q: With `CC(=O)c1ccc(NC(=O)[C@@H](C)NC(=O)[C@@H](CCCNC(=N)N)NC(=O)[C@@H](CO)NC(=O)[C@@H](CO)NC(=O)[C@@H](CO)NC(=O)CS)cc1` [T1] (Mercaptoacetyl-[dS][dS][dS][dR][dA]-X6) as the compound, how does the IC50 (human CXCR4; [3]) read?
A: 22.9 ± 3.9 nM

Q: For `C[C@@H](NC(=O)[C@@H](CCCNC(=N)N)NC(=O)[C@H](CC(=O)O)NC(=O)[C@H](CC(=O)O)NC(=O)[C@H](CC(=O)O)NC(=O)CS)C(=O)Nc1ccc(C(=O)O)cc1` [T2] (Mercaptoacetyl-DDD[dR][dA][4Abz]-OH), which logP [1] is on record?
A: −2.2

Q: What about the IC50 (human CXCR4; [3]) of the same compound?
A: 85.7 ± 5.1 nM

Q: Which logP [1] does the source give for `C[C@@H](NC(=O)[C@@H](CCCNC(=N)N)NC(=O)[C@H](CN)NC(=O)[C@H](CN)NC(=O)[C@H](CN)NC(=O)CS)C(=O)Nc1ccc(C(=O)O)cc1` [T3] (Mercaptoacetyl-[Dap][Dap][Dap][dR][dA][4Abz]-OH) here?
A: −1.5

Q: What about the IC50 (human CXCR4; [3]) of the same compound?
A: 18.8 ± 8.5 nM

Q: Which logP [1] does the source give for `C[C@@H](NC(=O)[C@@H](CCCNC(=N)N)NC(=O)[C@H](CO)NC(=O)[C@H](COP(=O)(O)O)NC(=O)[C@H](CO[C@H]1OC(CO)[C@H](O)C(O)C1O)NC(=O)CS)C(=O)Nc1ccc(C(=O)O)cc1` (some centres unmarked) [T4] (Mercaptoacetyl-S(X1)[pS]S[dR][dA][4Abz]-OH) here?
A: −2.2

Q: And the IC50 (human CXCR4; [3])?
A: 213 ± 22 nM

Q: With `CN1C(=O)[C@@H](Cc2ccc(O)cc2)NC(=O)CNC(=O)[C@H](Cc2ccc3ccccc3c2)NC(=O)[C@H](CCCNC(=N)N)NC(=O)[C@H]1CCCNC(=O)c1ccc(CNC(=O)CN2CCN(CC(=O)O)CCN(CC(=O)O)CCN(CC(=O)O)CC2)cc1` [compound 3, cyclo(D-Tyr^1-D-[NMe]Orn^2(AMBS-DOTA)-Arg^3-Nal^4-Gly^5), reference compound] (cyclo([dY][dNMeOrn]([4Amb-DOTA])R[2Nal]G)) as the compound, how does the IC50 (murine CXCR4) read?
A: > 1000 nM

Q: With “cyclo[i-yorn′(DOTA-ra-(4-amino)benzoyl-)RNaIG [P5]” as the compound, how does the “increase in affinity compared to P2” value (human CXCR4; hCXCR4) read?
A: almost two-fold

Q: With “cyclo[i-yorn′([^natLu]DOTA-dapG-(4-amino)benzoyl-)RNaIG [^natLu-P2]” as the compound, how does the “improvement of binding affinity by insertion of cationic amino acids in the linker” value (human CXCR4; hCXCR4, versus ligand with glycine linker only) read?
A: almost two-fold

Q: Which “mIC50[nM] ^natLu complexes and murine CXCR4” value (murine CXCR4; ^natLu complexes, Eμ-Myc1080 mouse B-cell lymphoma cells, [^125I]CPCR4.3, mean ± SD (n = 3)) does the source give for “cyclo[i-yorn′([^natLu]DOTA-rG-(4-amino)benzoyl-)RNaIG [^natLu-P4]” here?
A: 37.1 ± 2.9 nM

Source: patent US11639373B2, “Therapeutic and diagnostic agents for cancer” (TECHNISCHE UNIVERSITÄT MÜNCHEN, priority 2018, dated 2023)
